Tests used:
[1] = Inhibition of PI3K (unknown origin); set-up: species or system Homo sapiens
[2] = target: Phosphatidylinositol 4,5-bisphosphate 3-kinase catalytic subunit alpha isoform (Homo sapiens, UniProt P42336); experiment: Inhibition of PI3K alpha (unknown origin)
U2OS [3] = experiment: Cytotoxicity against human U2OS cells assessed as reduction in cell viability incubated for 48 hrs by MTT assay; type: functional, cell-based
SW480 = experiment: Antiproliferative activity against human SW480 cells assessed as reduction in cell viability incubated for 72 hrs by MTT assay; type: functional, cell-based; conditions: SW480, 72 h
[4] = Half life in human liver microsomes; type: ADME, Microsome
MCF7 = experiment: cells; conditions: Homo sapiens
Description: Antiproliferative activity against human MCF7 cells assessed as reduction in cell growth

[5] = target: T1, Serine-protein kinase ATM (Homo sapiens, UniProt Q13315); experiment: Inhibition of ATM (unknown origin)
T1 sequence (Q13315 whole entry): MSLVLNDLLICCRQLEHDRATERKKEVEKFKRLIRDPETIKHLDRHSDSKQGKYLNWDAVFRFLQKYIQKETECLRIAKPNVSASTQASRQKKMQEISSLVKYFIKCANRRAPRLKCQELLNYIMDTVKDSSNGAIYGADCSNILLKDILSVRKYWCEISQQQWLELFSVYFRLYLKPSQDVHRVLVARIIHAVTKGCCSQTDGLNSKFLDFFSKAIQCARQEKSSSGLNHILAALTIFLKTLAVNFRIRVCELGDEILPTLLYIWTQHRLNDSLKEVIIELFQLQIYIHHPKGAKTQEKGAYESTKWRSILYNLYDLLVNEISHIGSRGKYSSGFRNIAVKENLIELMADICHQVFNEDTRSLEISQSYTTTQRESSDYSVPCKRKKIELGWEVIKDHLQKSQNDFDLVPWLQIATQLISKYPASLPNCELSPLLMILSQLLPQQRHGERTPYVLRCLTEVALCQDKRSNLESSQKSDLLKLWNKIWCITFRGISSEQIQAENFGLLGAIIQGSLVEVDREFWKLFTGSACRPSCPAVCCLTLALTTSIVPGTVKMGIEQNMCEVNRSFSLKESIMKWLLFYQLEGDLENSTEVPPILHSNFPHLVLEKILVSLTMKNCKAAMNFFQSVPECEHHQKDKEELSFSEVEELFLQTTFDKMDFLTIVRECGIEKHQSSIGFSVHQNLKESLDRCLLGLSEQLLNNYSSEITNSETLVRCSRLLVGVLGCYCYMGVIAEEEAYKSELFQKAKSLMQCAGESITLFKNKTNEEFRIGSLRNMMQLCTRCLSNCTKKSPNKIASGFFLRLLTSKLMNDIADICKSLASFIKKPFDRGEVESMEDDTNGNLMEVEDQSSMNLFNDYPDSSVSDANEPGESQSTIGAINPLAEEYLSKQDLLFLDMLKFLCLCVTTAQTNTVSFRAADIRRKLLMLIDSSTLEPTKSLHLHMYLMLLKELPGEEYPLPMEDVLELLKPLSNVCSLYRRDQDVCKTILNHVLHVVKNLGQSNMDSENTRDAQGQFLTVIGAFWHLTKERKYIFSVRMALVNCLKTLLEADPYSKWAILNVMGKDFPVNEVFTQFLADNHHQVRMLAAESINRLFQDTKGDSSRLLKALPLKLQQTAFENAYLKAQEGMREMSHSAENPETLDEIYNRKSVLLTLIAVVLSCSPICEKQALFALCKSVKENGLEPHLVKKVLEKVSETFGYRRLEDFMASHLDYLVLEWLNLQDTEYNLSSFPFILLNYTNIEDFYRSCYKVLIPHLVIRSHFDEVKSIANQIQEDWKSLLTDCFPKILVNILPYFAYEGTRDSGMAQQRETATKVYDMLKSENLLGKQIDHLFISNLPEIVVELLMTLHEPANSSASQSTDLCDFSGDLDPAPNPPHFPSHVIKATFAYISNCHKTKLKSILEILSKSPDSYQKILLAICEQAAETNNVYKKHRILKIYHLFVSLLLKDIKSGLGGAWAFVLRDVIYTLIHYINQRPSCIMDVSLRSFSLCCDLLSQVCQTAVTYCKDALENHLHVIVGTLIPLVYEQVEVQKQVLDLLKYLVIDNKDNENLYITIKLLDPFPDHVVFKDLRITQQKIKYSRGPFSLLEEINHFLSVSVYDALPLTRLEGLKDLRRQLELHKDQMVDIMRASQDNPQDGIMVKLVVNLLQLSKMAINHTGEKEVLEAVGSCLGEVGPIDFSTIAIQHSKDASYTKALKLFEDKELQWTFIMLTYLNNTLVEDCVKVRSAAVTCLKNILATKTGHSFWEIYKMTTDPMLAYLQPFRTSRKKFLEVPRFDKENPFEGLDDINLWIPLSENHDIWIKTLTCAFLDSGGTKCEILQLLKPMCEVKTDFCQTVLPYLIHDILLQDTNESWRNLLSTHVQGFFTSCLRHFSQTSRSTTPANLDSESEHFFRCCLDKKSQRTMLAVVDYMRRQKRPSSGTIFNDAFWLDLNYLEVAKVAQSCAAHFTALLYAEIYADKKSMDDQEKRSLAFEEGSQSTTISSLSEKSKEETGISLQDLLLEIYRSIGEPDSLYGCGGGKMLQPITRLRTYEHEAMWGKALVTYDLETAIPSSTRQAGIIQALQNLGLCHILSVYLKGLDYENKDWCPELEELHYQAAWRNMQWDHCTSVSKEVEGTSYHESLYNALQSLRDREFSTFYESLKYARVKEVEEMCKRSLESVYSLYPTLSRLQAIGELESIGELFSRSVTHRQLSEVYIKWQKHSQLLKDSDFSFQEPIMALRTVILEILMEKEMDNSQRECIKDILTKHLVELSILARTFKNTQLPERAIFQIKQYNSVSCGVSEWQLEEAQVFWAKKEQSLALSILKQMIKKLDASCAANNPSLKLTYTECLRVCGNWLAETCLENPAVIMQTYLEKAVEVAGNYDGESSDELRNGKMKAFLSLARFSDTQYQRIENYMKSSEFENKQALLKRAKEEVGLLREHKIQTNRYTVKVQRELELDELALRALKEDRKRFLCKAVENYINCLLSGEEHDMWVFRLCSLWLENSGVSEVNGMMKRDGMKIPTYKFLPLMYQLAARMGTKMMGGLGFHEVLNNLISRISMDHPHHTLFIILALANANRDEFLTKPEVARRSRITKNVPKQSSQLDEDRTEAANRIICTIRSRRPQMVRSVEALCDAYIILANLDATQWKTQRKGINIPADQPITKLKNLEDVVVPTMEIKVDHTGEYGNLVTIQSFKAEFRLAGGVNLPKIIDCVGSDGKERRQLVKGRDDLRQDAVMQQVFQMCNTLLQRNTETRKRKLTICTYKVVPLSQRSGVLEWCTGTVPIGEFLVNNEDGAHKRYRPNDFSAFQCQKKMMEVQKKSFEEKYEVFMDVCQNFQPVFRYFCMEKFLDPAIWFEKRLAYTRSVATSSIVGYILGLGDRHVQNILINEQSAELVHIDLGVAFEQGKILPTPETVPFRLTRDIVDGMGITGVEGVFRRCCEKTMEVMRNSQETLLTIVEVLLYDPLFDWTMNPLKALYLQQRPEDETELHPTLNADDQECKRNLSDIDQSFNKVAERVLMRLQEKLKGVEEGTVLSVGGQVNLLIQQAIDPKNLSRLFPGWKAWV

[6] = target: Serine/threonine-protein kinase mTOR (Homo sapiens, UniProt P42345); experiment: Inhibition of mTOR (unknown origin)
U2OS [7] = experiment: cells; conditions: Homo sapiens
[8] = target: T1, Serine-protein kinase ATM; experiment: Binding affinity to ATM (unknown origin) assessed as inhibition constant
[9] = target: Phosphatidylinositol 3-kinase catalytic subunit type 3 (Homo sapiens, UniProt Q8NEB9); experiment: Binding affinity to Vps34 (unknown origin) assessed as inhibition constant
Phosphatidylinositol 3-kinase catalytic subunit type 3, sequence (Q8NEB9 whole entry): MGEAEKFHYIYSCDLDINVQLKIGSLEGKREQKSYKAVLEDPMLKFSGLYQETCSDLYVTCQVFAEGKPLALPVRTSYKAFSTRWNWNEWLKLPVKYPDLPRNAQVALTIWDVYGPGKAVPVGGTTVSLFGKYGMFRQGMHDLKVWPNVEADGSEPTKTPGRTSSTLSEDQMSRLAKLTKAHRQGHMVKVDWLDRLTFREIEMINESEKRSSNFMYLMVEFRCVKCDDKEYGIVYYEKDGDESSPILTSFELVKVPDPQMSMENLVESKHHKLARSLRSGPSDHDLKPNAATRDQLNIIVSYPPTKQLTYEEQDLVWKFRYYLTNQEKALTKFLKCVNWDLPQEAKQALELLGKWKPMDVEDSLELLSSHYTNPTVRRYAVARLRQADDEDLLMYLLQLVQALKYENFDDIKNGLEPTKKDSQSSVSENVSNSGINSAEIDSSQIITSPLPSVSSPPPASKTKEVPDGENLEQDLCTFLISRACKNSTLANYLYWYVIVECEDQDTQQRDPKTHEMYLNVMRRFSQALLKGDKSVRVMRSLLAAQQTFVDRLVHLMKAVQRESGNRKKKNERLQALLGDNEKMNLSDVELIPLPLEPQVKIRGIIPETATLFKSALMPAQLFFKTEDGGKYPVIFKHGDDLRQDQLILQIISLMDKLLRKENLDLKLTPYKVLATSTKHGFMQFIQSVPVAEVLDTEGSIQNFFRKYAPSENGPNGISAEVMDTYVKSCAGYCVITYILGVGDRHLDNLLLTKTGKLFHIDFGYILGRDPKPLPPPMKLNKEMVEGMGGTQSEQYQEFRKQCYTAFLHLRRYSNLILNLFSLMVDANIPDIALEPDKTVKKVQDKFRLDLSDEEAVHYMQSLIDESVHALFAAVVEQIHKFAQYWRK

Phosphatidylinositol 4,5-bisphosphate 3-kinase catalytic subunit alpha isoform, sequence (P42336 whole entry, canonical isoform): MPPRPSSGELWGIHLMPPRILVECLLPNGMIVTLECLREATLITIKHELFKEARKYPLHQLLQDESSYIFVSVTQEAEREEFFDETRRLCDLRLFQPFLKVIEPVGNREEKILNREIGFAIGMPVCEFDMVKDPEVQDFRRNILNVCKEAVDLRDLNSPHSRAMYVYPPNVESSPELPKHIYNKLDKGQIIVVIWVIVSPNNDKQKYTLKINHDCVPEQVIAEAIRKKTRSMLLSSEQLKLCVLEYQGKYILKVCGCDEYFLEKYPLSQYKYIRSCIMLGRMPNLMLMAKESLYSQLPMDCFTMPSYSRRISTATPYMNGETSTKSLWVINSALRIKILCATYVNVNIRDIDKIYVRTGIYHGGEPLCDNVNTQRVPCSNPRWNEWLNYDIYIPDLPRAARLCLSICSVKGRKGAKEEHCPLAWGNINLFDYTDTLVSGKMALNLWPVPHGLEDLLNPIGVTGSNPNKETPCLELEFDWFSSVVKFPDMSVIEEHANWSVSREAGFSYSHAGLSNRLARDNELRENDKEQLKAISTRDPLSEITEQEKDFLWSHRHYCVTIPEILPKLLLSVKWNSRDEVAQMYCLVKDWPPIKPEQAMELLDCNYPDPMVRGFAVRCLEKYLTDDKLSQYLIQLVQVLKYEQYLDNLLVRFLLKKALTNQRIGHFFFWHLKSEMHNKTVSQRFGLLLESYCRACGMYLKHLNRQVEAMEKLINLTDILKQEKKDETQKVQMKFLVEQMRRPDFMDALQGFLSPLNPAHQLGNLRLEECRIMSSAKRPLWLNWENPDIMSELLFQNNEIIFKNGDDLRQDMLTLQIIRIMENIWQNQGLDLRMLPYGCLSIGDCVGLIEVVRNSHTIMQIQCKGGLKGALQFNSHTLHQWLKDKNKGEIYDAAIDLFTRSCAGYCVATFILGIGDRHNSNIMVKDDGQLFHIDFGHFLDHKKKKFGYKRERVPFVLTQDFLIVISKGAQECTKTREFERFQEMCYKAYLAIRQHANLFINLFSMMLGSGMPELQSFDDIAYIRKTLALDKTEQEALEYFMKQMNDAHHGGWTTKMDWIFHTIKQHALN

| Compound | IC50 (U2OS [7]) [nM] | Ki [8] [nM] | Ki [9] [nM] | also measured |
| --- | --- | --- | --- | --- |
| C[C@@H]1CN(CC(=O)Nc2ccc3c(c2)Cc2cccc(-c4cc(=O)cc(N5CCOCC5)o4)c2S3)C[C@H](C)O1 | – | – | – | IC50 [1]: 6 nM |
| CN1CCN(CCC(=O)Nc2ccc3c(c2)Sc2cccc(-c4cc(=O)cc(N5CCOCC5)o4)c2S3)CC1 | – | – | – | IC50 [2]: 3 nM |
| COc1ccc2c(c1)Cc1cccc(-c3cc(=O)cc(N4CCOCC4)o3)c1S2 | – | – | – | IC50 [2]: 5 nM; IC50 (U2OS [3]): 910 nM |
| CNC(=O)c1ccc(-c2cnc3cnc(-c4ccccc4)cn23)cc1 | – | – | – | IC50 (SW480): 6200 nM |
| CC(C)NC(=O)N(C)c1cnc2ccc(-c3ccc(OCCCN4CCCCC4)nc3)cc2n1 | – | – | – | half-life [4]: 12.8 h |
| COCCOc1cc2c(-n3cc(-c4ccccn4)nc3N)ncnc2cc1OC | – | – | – | IC50 (MCF7): 1200 nM |
| COc1cc2ncnc(-n3cc(-c4ccccn4)nc3N)c2cc1OC | – | – | – | IC50 (MCF7): 370 nM |
| C=C1C(=O)OCC1C(=O)N1Cc2cc3ccccc3nc2C1 (configuration not stated) | – | – | – | IC50 [5]: 600 nM; IC50 [6]: 7000 nM |
| C[C@H]1CCN(c2nc(N3CCOCC3)cc(=O)[nH]2)[C@@H]1Cc1ccccc1 | 90 | 0.4 | 6 | – |
| O=c1cc(N2CCOCC2)cc(N2C[C@@H]3C[C@@H]3[C@H]2Cc2ccccc2)[nH]1 | 300 | 2 | 90 | – |
| O=c1cc(N2CCOCC2)cc(N2CCCCC[C@H]2Cc2ccccc2)[nH]1 | 230 | 1 | 50 | – |
| O=c1cc(N2CCOCC2)cc(N2CC3CC3[C@H]2Cc2ccccc2)[nH]1 (some centres not stated) | 3400 | 6 | 9 | – |
